Here are results for one compound from PMC13270500, “Legacy 4(1H)‑Quinolone Scaffolds Activity against Acute and Chronic Toxoplasma gondii Infection” (ACS Infectious Diseases, 2026).

Assay [1] concerns ME49 R4 ATQ^R tachyzoites. As to the kind of experiment: In vitro tachyzoite growth dose response, ATQ-resistant strain R4 (crystal violet). It is filed as cell-based. To be noted: Toxoplasma gondii, read-out: EC50 against R4 ATQ^R strain.
The subject of assay [2] is T. gondii RH (type I) tachyzoites. As to the kind of experiment: In vitro tachyzoite growth dose response, RH-RFP (red fluorescence). It is filed as cell-based. Conditions: Toxoplasma gondii, RH-RFP type I wild-type, in vitro proliferation; read-out: EC50 against RH tachyzoites. How it is done: Experiments with T. gondii tachyzoites were carried out with parasites expressing a td-Tomato red fluorescent protein (RFP). , Parasites were purified by passing them through a 25-gauge needle, followed by filtration through a 5 μm filter. Human fibroblasts were cultured in 96-well black plates for 48 (hTERT) or 120 (HFF) hours before the addition of 4,000 fluorescent tachyzoites/well. […] Two technical replicates per concentration were used, and the experiment was repeated in three independent biological replicates. Fluorescence values were measured for up to 7 days, and both excitation (544 nm) and emission (590 nm) were read from the bottom of the plates in a BioTek Synergy H1 Hybrid plate reader. […] The EC50s were calculated using GraphPad Prism software version 10.

As for `O=C1C(O)=C([C@H]2CC[C@H](c3ccc(Cl)cc3)CC2)C(=O)c2ccccc21` [ATQ, atovaquone], the EC50 was 1870 nM in assay [1] and 14.1 nM in assay [2].
